Experimental data published in patent US9708314B2, “Heterocyclic amide compound” (NISSAN CHEMICAL INDUSTRIES, LTD., priority 2013, dated 2017).

Experiments:
Assay type in all cases: in vivo
[1] = test system: transplanted Oryza sativa; assay: Test Example 1: effect on crop, application before weed generation in submerged conditions; conditions: Application herbicide amount 320 g/ha; Seventeenth Table
Outline: (§1)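 Alluvial soil in Wagner pots flooded to 4 cm water depth; weed seeds sown and 2.5 leaf stage rice seedlings transplanted. Emulsion diluted in water applied to water surface on sowing day at stated g/ha. Greenhouse 25° C. to 30° C.; effects scored 0–5 by herbicidal ratio after three weeks.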

Stellaria media = assay: Test Example 4: herbicidal effect by application to foliage (diluvial soil, plastic box); conditions: application to foliage, application herbicide amount 320 g/ha
Outline: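 Scores run from 0 (herbicidal ratio ≤5%) to 5 (≥90%, almost fully withered) and were assessed three weeks after foliar spraying. Seedlings had been raised for 14 days at 25-30° C in sterilized diluvial soil before treatment, with the emulsion diluted in water to the stated g/ha dose.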

[2] = test system: Echinochloa crus-galli var. crus-galli; assay: Test Example 3: herbicidal effect by application to foliage (Wagner pot, water depth 0.1-0.5 cm); conditions: Nineteenth Table; for H (herbicidal effect grade): application to foliage
Outline: (§2)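 Scores (0–5) reflect herbicidal ratio three weeks after a foliar spray: 0 is 5% or less, 5 is 90% or more. Plants had grown 14 days in alluvial soil pots in a 25–30 °C greenhouse before treatment with water-diluted emulsion at a set g/ha.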

Cyperus difformis = assay: as above; conditions: Nineteenth Table; for E (herbicidal effect grade): application to foliage
Outline: as §2

Leptochloa chinensis = assay: as above; conditions: Nineteenth Table; for D (herbicidal effect grade): application to foliage
Outline: as §2

[3] = test system: directly sowed Oryza sativa; assay: Test Example 3: effect on crop by application to foliage (Wagner pot, water depth 0.1-0.5 cm); conditions: Nineteenth Table; for b (effect on crop grade): application to foliage
Outline: as §2

[4] = test system: Echinochloa oryzacola Vasing.; assay: Test Example 1: herbicidal activity, application before weed generation in submerged conditions; conditions: Application herbicide amount 320 g/ha; Seventeenth Table
Outline: as §1

Monochoria vaginalis = assay: as above; conditions: Application herbicide amount 320 g/ha; Seventeenth Table
Outline: as §1

Scirpus juncoides = assay: as above; conditions: Application herbicide amount 320 g/ha; Seventeenth Table
Outline: as §1

[5] = application herbicide amount 320 g/ha
[6] = application herbicide amount 400 g/ha

Compound | a: transplanted Oryza sativa (effect on crop grade) [1] | P (Stellaria media) herbicidal effect (Stellaria media) | H (Echinochloa crus-galli var. crus-galli) herbicidal ratio grade [2, 5] | E (Cyperus difformis) herbicidal ratio grade (Cyperus difformis; [5]) | D (Leptochloa chinensis) herbicidal ratio grade (Leptochloa chinensis; [5]) | b (directly sowed Oryza sativa) effect on crop grade [3, 5] | A: Echinochloa oryzicola Vasing. (herbicidal effect grade) [4] | C: Monochoria vaginalis (herbicidal effect grade) (Monochoria vaginalis) | B: Scirpus juncoides (herbicidal effect grade) (Scirpus juncoides) | H (Echinochloa crus-galli var. crus-galli) herbicidal ratio grade [2, 6] | D (Leptochloa chinensis) herbicidal ratio grade (Leptochloa chinensis; [6]) | b (directly sowed Oryza sativa) effect on crop grade [3, 6] | E (Cyperus difformis) herbicidal ratio grade (Cyperus difformis; [6]) | H (herbicidal effect grade) [2, 5] | E (herbicidal effect grade) (Cyperus difformis; [5]) | D (herbicidal effect grade) (Leptochloa chinensis; [5]) | b (effect on crop grade) [3, 5]
Cc1nnc(NC(=O)c2ccc(C(F)(F)F)n3c(Br)nnc23)o1 [1-014] | 0 (Herbicidal ratio of 5% or less (almost no effect)) | 5 (Herbicidal ratio of 90% or more (almost completely withered)) | 5 (Herbicidal ratio of 90% or more (almost completely withered)) | 4 (Herbicidal ratio of 70% or more and less than 90%) | 2 (Herbicidal ratio of 20% or more and less than 40%) | 1 (Herbicidal ratio of 5% or more and less than 20%) | 5 (Herbicidal ratio of 90% or more (almost completely withered)) | 3 (Herbicidal ratio of 40% or more and less than 70%) | 4 (Herbicidal ratio of 70% or more and less than 90%) |  |  |  |  |  |  |  | 
Cc1nnc(NC(=O)c2ccc(C(F)(F)F)n3c(C)nnc23)o1 [1-002] | 0 (Herbicidal ratio of 5% or less (almost no effect)) | 5 (Herbicidal ratio of 90% or more (almost completely withered)) |  |  |  |  | 2 (Herbicidal ratio of 20% or more and less than 40%) | 0 (Herbicidal ratio of 5% or less (almost no effect)) | 1 (Herbicidal ratio of 5% or more and less than 20%) | 4 (Herbicidal ratio of 70% or more and less than 90%) | 4 (Herbicidal ratio of 70% or more and less than 90%) | 0 (Herbicidal ratio of 5% or less (almost no effect)) |  |  |  |  | 
Cc1nnc(NC(=O)c2ccc(C(F)(F)F)n3c(C(C)C)nnc23)o1 [1-004, 3-Isopropyl-N-(5-methyl-1,3,4-oxadiazol-2-yl)-5-(trifluoromethyl)-[1,2,4]triazolo[4,3-a]pyridine-8-carboxamide] | 1 (Herbicidal ratio of 5% or more and less than 20%) | 5 (Herbicidal ratio of 90% or more (almost completely withered)) |  |  |  |  | 5 (Herbicidal ratio of 90% or more (almost completely withered)) | 4 (Herbicidal ratio of 70% or more and less than 90%) | 4 (Herbicidal ratio of 70% or more and less than 90%) | 4 (Herbicidal ratio of 70% or more and less than 90%) | 5 (Herbicidal ratio of 90% or more (almost completely withered)) | 0 (Herbicidal ratio of 5% or less (almost no effect)) | 5 (Herbicidal ratio of 90% or more (almost completely withered)) |  |  |  | 
Cc1nnc(NC(=O)c2ccc(C(F)(F)F)n3c(-c4ccccc4)nnc23)o1 [1-012] | 0 (Herbicidal ratio of 5% or less (almost no effect)) | 4 (Herbicidal ratio of 70% or more and less than 90%) |  |  |  |  | 5 (Herbicidal ratio of 90% or more (almost completely withered)) | 4 (Herbicidal ratio of 70% or more and less than 90%) | 3 (Herbicidal ratio of 40% or more and less than 70%) | 3 (Herbicidal ratio of 40% or more and less than 70%) | 5 (Herbicidal ratio of 90% or more (almost completely withered)) | 0 (Herbicidal ratio of 5% or less (almost no effect)) |  |  |  |  | 
Cc1nnc(NC(=O)c2ccc(C(F)(F)F)n3c(C4CC4)nnc23)o1 [1-010] | 0 (Herbicidal ratio of 5% or less (almost no effect)) | 5 (Herbicidal ratio of 90% or more (almost completely withered)) |  |  |  |  | 5 (Herbicidal ratio of 90% or more (almost completely withered)) |  | 3 (Herbicidal ratio of 40% or more and less than 70%) | 5 (Herbicidal ratio of 90% or more (almost completely withered)) | 5 (Herbicidal ratio of 90% or more (almost completely withered)) | 0 (Herbicidal ratio of 5% or less (almost no effect)) | 4 (Herbicidal ratio of 70% or more and less than 90%) |  |  |  | 
COc1cc(OC)cc(-c2nnc3c(C(=O)Nc4nnc(C)o4)ccc(C(F)(F)F)n23)c1 [1-070] | 3 (Herbicidal ratio of 40% or more and less than 70%) |  |  |  |  |  | 5 (Herbicidal ratio of 90% or more (almost completely withered)) | 5 (Herbicidal ratio of 90% or more (almost completely withered)) | 5 (Herbicidal ratio of 90% or more (almost completely withered)) |  |  |  |  | 4 (Herbicidal ratio of 70% or more and less than 90%) | 5 (Herbicidal ratio of 90% or more (almost completely withered)) | 5 (Herbicidal ratio of 90% or more (almost completely withered)) | 0 (Herbicidal ratio of 5% or less (almost no effect))
Cc1nnc(NC(=O)c2ccc(C(F)(F)F)n3c(-c4cncs4)nnc23)o1 [1-058] | 4 (Herbicidal ratio of 70% or more and less than 90%) |  |  |  |  |  | 5 (Herbicidal ratio of 90% or more (almost completely withered)) | 4 (Herbicidal ratio of 70% or more and less than 90%) | 5 (Herbicidal ratio of 90% or more (almost completely withered)) |  |  |  |  | 5 (Herbicidal ratio of 90% or more (almost completely withered)) | 5 (Herbicidal ratio of 90% or more (almost completely withered)) | 5 (Herbicidal ratio of 90% or more (almost completely withered)) | 4 (Herbicidal ratio of 70% or more and less than 90%)
CCOC(=O)Cc1nnc2c(C(=O)Nc3nnc(C)o3)ccc(C(F)(F)F)n12 [1-042] | 0 (Herbicidal ratio of 5% or less (almost no effect)) | 4 (Herbicidal ratio of 70% or more and less than 90%) | 5 (Herbicidal ratio of 90% or more (almost completely withered)) | 4 (Herbicidal ratio of 70% or more and less than 90%) |  | 1 (Herbicidal ratio of 5% or more and less than 20%) | 2 (Herbicidal ratio of 20% or more and less than 40%) | 2 (Herbicidal ratio of 20% or more and less than 40%) | 2 (Herbicidal ratio of 20% or more and less than 40%) |  |  |  |  |  |  |  | 
Cc1nnc(NC(=O)c2ccc(C(F)(F)F)n3c(CCS(C)(=O)=O)nnc23)o1 [1-085] | 3 (Herbicidal ratio of 40% or more and less than 70%) |  |  |  |  |  | 3 (Herbicidal ratio of 40% or more and less than 70%) | 3 (Herbicidal ratio of 40% or more and less than 70%) | 4 (Herbicidal ratio of 70% or more and less than 90%) |  |  |  |  | 5 (Herbicidal ratio of 90% or more (almost completely withered)) | 5 (Herbicidal ratio of 90% or more (almost completely withered)) | 5 (Herbicidal ratio of 90% or more (almost completely withered)) | 3 (Herbicidal ratio of 40% or more and less than 70%)
